16 molecules from patent US20230212131A1, “COLLAGEN 1 TRANSLATION INHIBITORS AND METHODS OF USE THEREOF” (Anima Biotech Inc., priority 2020, published 2023) can be followed below.

One test has as its system collagen 1 (COL1). The experiment in a line: WI-38 collagen 1 inhibition assay. In kind it is cell-based, human. The note with it: Cellular EC50, WI-38 cells; values are classes of LogEC50. The gist of the method: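 WI-38 fibroblasts serum-starved (0.25% FBS 2 h, then none 24 h), then given a collagen induction cocktail together with compound. Cells fixed, immunostained for collagen I with DAPI counterstain, and imaged at 20×; per-cell fluorescence quantified by image analysis.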

The next test deals with Collagen translation. The experiment in a line: Tissue selectivity of collagen translation modulator (FIG. 3). In kind it is cell-based. Here is the method:
Primary human pulmonary fibroblasts (HPF, PromoCell C-12360) were maintained in fibroblast growth medium 2 (PromoCell C-23020) according to manufacture instruction. Collagen synthesis was inducted using the same cocktail as for the WI-38 cells.
Primary human dermal fibroblasts (HDF) (PromoCell C-12302) were maintained in PromoCell's proprietary Fibroblast Growth Medium 2 (ready-to-use, Cat. C-23020). For collagen synthesis induction, cells were seeded on experimental plates for 24 hours followed by addition of collagen induction cocktail. Tested compounds were added together with induction.

The subject of another test is Collagen type-I. In words: Collagen type-I immunofluorescence and Col-I mRNA FISH in WI-38 Human Lung Fibroblasts (FIG. 4). In kind it is cell-based. Particulars: 96 hours incubation (immunofluorescence), 24 hours incubation (FISH of Col-I mRNA). Here is the method:
FIG. 4A: WI-38 Human Lung Fibroblasts, 96 hours incubation with compounds. White: Collagen type-I; Gray: DAPI. Immunofluorescence. FIG. 4B: WI-38 Human Lung Fibroblasts, 24 hours incubation with compounds. FISH analysis. White: Col-I mRNA; Gray: DAPI.
Cells in 96-well or 384-well plates were fixed for 20 min in 4% paraformaldehyde (PFA, ENCO, Cat. sc-281692). Following two washes with 1×PBS, cells were treated with hydrogen peroxide (Acros, Cat: 7722-84-1) for 10 minutes and then washed twice with 1×PBS. Cells were then incubated over-night at 4° C. with Anti-Collagen I (Sigma-Aldrich, Cat: C 2456) antibody and washed three times with 1×PBS. […]
Cell images were taken with Operetta (Perkin Elmer, USA), a wide-field fluorescence microscope at 20× magnification. […] In Columbus, cells were identified by their nucleus, using the “Find Nuceli” module and cytoplasm was detected based on the secondary antibody channel. […]
Following RNA FISH experiments, images of cells were taken with Operetta (Perkin Elmer, USA), a wide-field fluorescence microscope at 20× magnification. […] In Columbus, cells were identified by their nucleus, using the “Find Nuceli” module, cytoplasm was detected based on the FISH-channel, and single mRNAs in the cytoplasm and transcription sites in the nucleus were detected using “Find Spots” module. […]

`O=C(Nc1nc(-c2ccccc2Cl)cs1)c1ccc(N2CCOCC2)cc1` [compound 327, N-[4-(2-chlorophenyl)thiazol-2-yl]-4-morpholino-benzamide]: in the test on collagen 1 (COL1), the “COL1 Efficacy (LogEC50)” value is “+++ (+++: <−6)”. The tissue selectivity entry in the test with Collagen translation is given as “tissue selective”. The “level of action on collagen synthesis” value in the test on Collagen type-I is “act at the level of translation”. Turning to `COc1ccc(C(=O)Nc2nc(-c3cnccc3OC)cs2)cc1` [Compound 326, 4-methoxy-N-[4-(4-methoxy-3-pyridyl)thiazol-2-yl]benzamide], the “COL1 Efficacy (LogEC50)” value in the test with collagen 1 (COL1) is on record as “++ (++: −5 to −6)”. The same measure, in the same setting: the same measure for `CN1CCN(C(=O)c2ccc(C(=O)Nc3nc(-c4ccccc4Cl)cs3)nc2)CC1` [compound 437, N-(4-(2-chlorophenyl)thiazol-2-yl)-5-(4-methylpiperazine-1-carbonyl)picolinamide]: “++ (++: −5 to −6)”; for `Cc1ccc(C(=O)Nc2nc(-c3cccnc3)cs2)cn1` [Compound 323, 6-methyl-N-[4-(3-pyridyl)thiazol-2-yl]pyridine-3-carboxamide]: “+ (+: >−5)”; for `O=C(Nc1nc(-c2ccccc2Cl)cs1)c1ccc(N2CCOCC2)cc1Cl` [Compound 409, 2-chloro-N-(4-(2-chlorophenyl)thiazol-2-yl)-4-morpholinobenzamide]: “++ (++: −5 to −6)”.

For the molecule `O=C(Nc1nc(-c2ccccc2Cl)cs1)c1cnc(N2CCOCC2)nc1` [compound 358, N-[4-(2-chlorophenyl)thiazol-2-yl]-2-morpholino-pyrimidine-5-carboxamide], the “COL1 Efficacy (LogEC50)” value with collagen 1 (COL1) was “− (−: inactive)”. On the same count and under the same terms, the same measure for `CNCc1ccccc1-c1csc(NC(=O)c2ccc(N3CCN(S(C)(=O)=O)CC3)cn2)n1` [compound 457]: “− (−: inactive)”. Turning to `CC(=O)N1CCN(c2csc(C(=O)Nc3nc(-c4ccccc4Cl)cs3)c2)CC1` [Compound 462, 4-(4-acetylpiperazin-1-yl)-N-(4-(2-chlorophenyl)thiazol-2-yl)thiophene-2-carboxamide], in the test on collagen 1 (COL1), the “COL1 Efficacy (LogEC50)” value is on record as “++ (++: −5 to −6)”. Same read-out and setting: then `COCc1ccccc1-c1csc(NC(=O)c2ccc(N3CCN(C(C)=O)CC3)cn2)n1` [compound 469, 5-(4-acetylpiperazin-1-yl)-N-(4-(2-(methoxymethyl)phenyl)thiazol-2-yl)picolinamide], with “+++ (+++: <−6)”. Same read-out and setting: then `COc1ccc(C(=O)Nc2nc(-c3cccnc3OC)cs2)cc1` [Compound 332, 4-methoxy-N-[4-(2-methoxy-3-pyridyl)thiazol-2-yl]benzamide], with “++ (++: −5 to −6)”; and `O=C(Nc1nc(-c2ccccc2Cl)cs1)c1ccc(N2CCOCC2)nc1` [compound 346, N-[4-(2-chlorophenyl)thiazol-2-yl]-6-morpholino-pyridine-3-carboxamide], with “+++ (+++: <−6)”. In the case of `O=C(Nc1nc(-c2ccccc2Cl)cs1)c1ccc(N2CCNCC2)cc1` [Compound 334, N-(4-(2-chlorophenyl)thiazol-2-yl)-4-(piperazin-1-yl)benzamide], in the test on collagen 1 (COL1), the “COL1 Efficacy (LogEC50)” value is recorded as “+++ (+++: <−6)”. Same read-out and setting: then `COCc1ncccc1-c1csc(NC(=O)c2ccc(N3CCN(C(C)=O)CC3)cn2)n1` [compound 471, 5-(4-acetylpiperazin-1-yl)-N-(4-(2-(methoxymethyl)pyridin-3-yl)thiazol-2-yl)picolinamide], with “+++ (+++: <−6)”; and `CS(=O)(=O)N1CCN([C@H]2C[C@@H](C(=O)Nc3nc(-c4ccccc4Cl)cs3)C2)CC1` [compound 423], with “− (−: inactive)”; and `COCc1ccccc1-c1csc(NC(=O)c2ccc(N3CCN(S(C)(=O)=O)CC3)cn2)n1` [Compound 447, N-(4-(2-(methoxymethyl)phenyl)thiazol-2-yl)-5-(4-(methylsulfonyl)piperazin-1-yl)picolinamide], with “+++ (+++: <−6)”. As for `Cc1ncccc1-c1csc(NC(=O)c2ccc(N3CCOCC3)cc2)n1` [compound 369, N-[4-(2-methyl-3-pyridyl)thiazol-2-yl]-4-morpholino-benzamide], in the test on collagen 1 (COL1), the “COL1 Efficacy (LogEC50)” value is recorded as “++ (++: −5 to −6)”.
